Activity calls are given as the source filed them. The rule behind the calls is not given here.
Tests used:
[1] = biological target: Metabotropic glutamate receptor 7 (Homo sapiens) (UniProt Q14831); assay: Negative allosteric modulation of mGlu7 receptor (unknown origin)
Canis familiaris = assay: Toxicity in dog administered as repeated dosage for 5 days; format: organism-based, Canis lupus familiaris; settings: in vivo, 120 h
Brain [2] = assay: Total drug level in mouse brain at 0.3 mg/kg, sc; format: ADME, organism-based; settings: in vivo, read-out: Drug uptake
[3] = biological target: Metabotropic glutamate receptor 1 (Homo sapiens) (UniProt Q13255); assay: Positive allosteric modulation of mGlu1 receptor (unknown origin)
Plasma [4] = assay: Total plasma concentration in mouse at 0.3 mg/kg, sc; format: ADME, organism-based; settings: in vivo
[5] = biological target: Metabotropic glutamate receptor 6 (Homo sapiens) (UniProt O15303); assay: Negative allosteric modulation of mGlu6 receptor (unknown origin)
Rattus norvegicus [6] = assay: Receptor occupancy of mGlu5 receptor in Sprague-Dawley rat at 0.1 mg/kg, sc relative to control; format: functional
[7] = biological target: Metabotropic glutamate receptor 8 (Homo sapiens) (UniProt O00222); assay: Negative allosteric modulation of mGlu8 receptor (unknown origin)
[8] = Inhibition of human recombinant CYP450; format: ADME
[9] = Volume of distribution at steady state in rat at 1 mg/kg, iv; format: ADME, organism-based; settings: in vivo, read-out: Vdss
[10] = biological target: Metabotropic glutamate receptor 6 (Homo sapiens) (UniProt O15303); assay: Positive allosteric modulation of mGlu6 receptor (unknown origin)
Mus musculus [11] = assay: Cognitive enhancement effect in mouse assessed as reduction in time spent with familiar object in retention session at 0.3 to 3 mg/kg, sc treated for 60 mins prior to acquisition session measured after 24 hrs for 10 mins by novel object recognition assay; format: functional; settings: read-out: MED
[12] = Cmax in rat at 100 mg/kg, po measured on day1; format: ADME, organism-based; design: dose 100 mg/kg, route oral; settings: in vivo
[13] = biological target: T1, Progesterone receptor (Homo sapiens) (UniProt P06401); assay: Antagonist activity at progesterone receptor (unknown origin)
T1 sequence (whole entry): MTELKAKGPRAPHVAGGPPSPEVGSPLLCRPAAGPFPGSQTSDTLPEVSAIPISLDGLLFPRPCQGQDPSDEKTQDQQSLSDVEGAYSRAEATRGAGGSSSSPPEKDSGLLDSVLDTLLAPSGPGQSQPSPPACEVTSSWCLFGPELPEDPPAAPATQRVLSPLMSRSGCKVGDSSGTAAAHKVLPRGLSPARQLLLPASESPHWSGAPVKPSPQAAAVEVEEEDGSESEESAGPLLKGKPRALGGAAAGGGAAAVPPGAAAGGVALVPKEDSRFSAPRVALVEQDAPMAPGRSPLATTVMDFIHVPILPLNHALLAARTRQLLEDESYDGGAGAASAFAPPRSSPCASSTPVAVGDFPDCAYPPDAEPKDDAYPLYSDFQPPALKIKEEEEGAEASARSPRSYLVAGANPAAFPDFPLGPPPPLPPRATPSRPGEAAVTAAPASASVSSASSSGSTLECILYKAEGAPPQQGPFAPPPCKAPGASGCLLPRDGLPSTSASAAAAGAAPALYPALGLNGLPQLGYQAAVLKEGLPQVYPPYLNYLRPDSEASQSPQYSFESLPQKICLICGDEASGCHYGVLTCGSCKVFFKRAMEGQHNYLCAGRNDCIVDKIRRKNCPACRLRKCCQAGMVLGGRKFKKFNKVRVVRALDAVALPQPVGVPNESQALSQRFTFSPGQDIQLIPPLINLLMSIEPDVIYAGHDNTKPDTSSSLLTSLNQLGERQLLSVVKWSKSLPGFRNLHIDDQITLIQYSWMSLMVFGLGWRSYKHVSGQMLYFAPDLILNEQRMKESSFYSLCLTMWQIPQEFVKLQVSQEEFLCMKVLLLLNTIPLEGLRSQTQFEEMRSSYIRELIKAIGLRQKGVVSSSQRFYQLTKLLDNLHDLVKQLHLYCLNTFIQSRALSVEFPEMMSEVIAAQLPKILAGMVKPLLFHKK

[14] = biological target: Metabotropic glutamate receptor 3 (Homo sapiens) (UniProt Q14832); assay: Negative allosteric modulation of mGlu3 receptor (unknown origin)
Salmonella typhimurium [15] = assay: Mutagenicity in Salmonella typhimurium by Ames test in presence of s9 liver fraction; format: toxicity, organism-based; settings: salmonella enterica subsp. enterica serovar typhimurium
Mus musculus [16] = assay: Ex vivo receptor occupancy of mGlu5 receptor in C57/BL6 mouse at 10 to 30 mg/kg, ip relative to control; format: functional
[17] = Oral bioavailability in cynomolgus monkey at 1 mg/kg; format: ADME, organism-based, Macaca fascicularis; settings: in vivo
[18] = Oral bioavailability in dog at 1 mg/kg; format: ADME, organism-based, Canis lupus familiaris; settings: in vivo
[19] = biological target: Metabotropic glutamate receptor 4 (Homo sapiens) (UniProt Q14833); assay: Agonist activity at mGlu4 receptor (unknown origin)
[20] = biological target: Metabotropic glutamate receptor 4 (Homo sapiens) (UniProt Q14833); assay: Negative allosteric modulation of mGlu4 receptor (unknown origin)
Mus musculus [21] = assay: Neurotoxicity in C57/BL6 mouse assessed as induction of convulsion at 30 mg/kg, ip; format: toxicity, organism-based; settings: in vivo
Rattus norvegicus [22] = assay: Reversal of NMDA antagonist MK-801-induced deficits in set shift performance in Sprague-Dawley rat assessed as reduction in number of trial required to achieve 8 consecutive correct selection at 0.1 to 3 mg/kg, sc pretreated for 25 mins followed by MK-801 injection measured after 35 mins by wisconsin card sorting test; format: functional; settings: read-out: MED
[23] = AUC (0 to 24 hrs) in rat at 100 mg/kg, po measured on day1; format: ADME, organism-based; design: time < 24 hr, dose 100 mg/kg, route oral; settings: in vivo
[24] = biological target: Metabotropic glutamate receptor 2 (Homo sapiens) (UniProt Q14416); assay: Positive allosteric modulation of mGlu2 receptor (unknown origin)
[25] = biological target: Metabotropic glutamate receptor 4 (Homo sapiens) (UniProt Q14833); assay: Positive allosteric modulation of mGlu4 receptor (unknown origin)
Rattus norvegicus [26] = assay: Toxicity in rat administered as repeated dosage for 2 weeks; format: organism-based; settings: in vivo, 336 h
Salmonella typhimurium [27] = assay: Mutagenicity in Salmonella typhimurium by Ames test; format: toxicity, organism-based; settings: salmonella enterica subsp. enterica serovar typhimurium
[28] = biological target: Metabotropic glutamate receptor 6 (Homo sapiens) (UniProt O15303); assay: Agonist activity at mGlu6 receptor (unknown origin)
Plasma [29] = assay: Total plasma concentration in Sprague-Dawley rat at 0.1 mg/kg, sc; format: ADME, organism-based; settings: in vivo
Mus musculus [30] = assay: Receptor occupancy of mGlu5 receptor in mouse at 0.3 mg/kg, sc relative to control; format: functional
Rattus norvegicus [31] = assay: Neurotoxicity in rat assessed as neuronal necrosis in brain hippocampal slice at 100 mg/kg/day, po for 8 days by haematoxylin and eosin staining based assay; format: toxicity, organism-based; settings: in vivo, 192 h
[32] = Ratio of drug level in brain to plasma in rat at 1 mg/kg, iv; format: ADME, organism-based; settings: read-out: BPR
[33] = biological target: Metabotropic glutamate receptor 7 (Homo sapiens) (UniProt Q14831); assay: Positive allosteric modulation of mGlu7 receptor (unknown origin)
Rattus norvegicus [34] = assay: Neurotoxicity in rat assessed as neuronal necrosis in brain auditory complex at 100 mg/kg/day, po for 8 days by haematoxylin and eosin staining based assay; format: toxicity, organism-based; settings: in vivo, 192 h
[35] = Clearance in rat at 1 mg/kg, iv; format: ADME, organism-based; settings: in vivo
Homo sapiens = species: Homo sapiens; assay: Inhibition of sodium channel (unknown origin) at 10 uM by patch clamp method relative to control
[36] = biological target: T1, Progesterone receptor (Homo sapiens); assay: Agonist activity at progesterone receptor (unknown origin)
[37] = biological target: Voltage-gated inwardly rectifying potassium channel KCNH2 (Homo sapiens, UniProt Q12809); assay: Inhibition of human ERG by patch clamp method
[38] = biological target: Metabotropic glutamate receptor 7 (Homo sapiens) (UniProt Q14831); assay: Agonist activity at mGlu7 receptor (unknown origin)
[39] = biological target: Metabotropic glutamate receptor 8 (Homo sapiens) (UniProt O00222); assay: Agonist activity at mGlu8 receptor (unknown origin)
Brain [40] = assay: Total drug level in Sprague-Dawley rat brain at 0.1 mg/kg, sc; format: ADME, organism-based; settings: in vivo, read-out: Drug uptake
Progesterone receptor = biological target: T2, Progesterone receptor (Homo sapiens, UniProt P06401); assay: Inhibition of progesterone receptor (unknown origin)
T2 sequence (P06401 whole entry): T1 sequence (whole entry)

[41] = biological target: Metabotropic glutamate receptor 1 (Homo sapiens) (UniProt Q13255); assay: Agonist activity at mGlu1 receptor (unknown origin)
[42] = biological target: Metabotropic glutamate receptor 3 (Homo sapiens) (UniProt Q14832); assay: Positive allosteric modulation of mGlu3 receptor (unknown origin)
[43] = biological target: Metabotropic glutamate receptor 3 (Homo sapiens) (UniProt Q14832); assay: Agonist activity at mGlu3 receptor (unknown origin)
[44] = biological target: Metabotropic glutamate receptor 1 (Homo sapiens) (UniProt Q13255); assay: Negative allosteric modulation of mGlu1 receptor (unknown origin)
[45] = biological target: Metabotropic glutamate receptor 2 (Homo sapiens) (UniProt Q14416); assay: Agonist activity at mGlu2 receptor (unknown origin)
[46] = biological target: Metabotropic glutamate receptor 2 (Homo sapiens) (UniProt Q14416); assay: Negative allosteric modulation of mGlu2 receptor (unknown origin)
[47] = biological target: Metabotropic glutamate receptor 8 (Homo sapiens) (UniProt O00222); assay: Positive allosteric modulation of mGlu8 receptor (unknown origin)
[48] = Protein binding in plasma (unknown origin); format: ADME, cell-free; settings: read-out: PPB (converted)
[49] = Oral bioavailability in rat at 1 mg/kg; format: ADME, organism-based; settings: in vivo
Mus musculus [50] = assay: Neurotoxicity in C57/BL6 mouse assessed as induction of convulsion at 3 mg/kg, ip; format: toxicity, organism-based; settings: in vivo
Mus musculus [51] = assay: Toxicity in C57/BL6 mouse assessed as death at 3 mg/kg, ip; format: organism-based; settings: in vivo
[52] = biological target: T3, Metabotropic glutamate receptor 5 (Homo sapiens, UniProt P41594)
Description: Positive allosteric modulation of human mGlu5A receptor expressed in HEK293 cells coexpressing rat glutamate-aspartate transporter assessed as potentiation of L-glutamate-induced Ca2+ signal incubated for 60 mins by calcium 4 dye based FLIPR assay

[53] = biological target: T3, Metabotropic glutamate receptor 5; assay: Displacement of [3H]MPEP in mGlu5 receptor (unknown origin) incubated for 60 mins by liquid scintillation counting method
[54] = biological target: T3, Metabotropic glutamate receptor 5; remark: listed apart in the source
Description: Agonist activity at human mGlu5A receptor expressed in HEK293 cells coexpressing rat glutamate-aspartate transporter assessed as induction of Ca2+ release by calcium 4 dye based FLIPR assay

Chain of Metabotropic glutamate receptor 7 (Homo sapiens) (Q14831 whole entry): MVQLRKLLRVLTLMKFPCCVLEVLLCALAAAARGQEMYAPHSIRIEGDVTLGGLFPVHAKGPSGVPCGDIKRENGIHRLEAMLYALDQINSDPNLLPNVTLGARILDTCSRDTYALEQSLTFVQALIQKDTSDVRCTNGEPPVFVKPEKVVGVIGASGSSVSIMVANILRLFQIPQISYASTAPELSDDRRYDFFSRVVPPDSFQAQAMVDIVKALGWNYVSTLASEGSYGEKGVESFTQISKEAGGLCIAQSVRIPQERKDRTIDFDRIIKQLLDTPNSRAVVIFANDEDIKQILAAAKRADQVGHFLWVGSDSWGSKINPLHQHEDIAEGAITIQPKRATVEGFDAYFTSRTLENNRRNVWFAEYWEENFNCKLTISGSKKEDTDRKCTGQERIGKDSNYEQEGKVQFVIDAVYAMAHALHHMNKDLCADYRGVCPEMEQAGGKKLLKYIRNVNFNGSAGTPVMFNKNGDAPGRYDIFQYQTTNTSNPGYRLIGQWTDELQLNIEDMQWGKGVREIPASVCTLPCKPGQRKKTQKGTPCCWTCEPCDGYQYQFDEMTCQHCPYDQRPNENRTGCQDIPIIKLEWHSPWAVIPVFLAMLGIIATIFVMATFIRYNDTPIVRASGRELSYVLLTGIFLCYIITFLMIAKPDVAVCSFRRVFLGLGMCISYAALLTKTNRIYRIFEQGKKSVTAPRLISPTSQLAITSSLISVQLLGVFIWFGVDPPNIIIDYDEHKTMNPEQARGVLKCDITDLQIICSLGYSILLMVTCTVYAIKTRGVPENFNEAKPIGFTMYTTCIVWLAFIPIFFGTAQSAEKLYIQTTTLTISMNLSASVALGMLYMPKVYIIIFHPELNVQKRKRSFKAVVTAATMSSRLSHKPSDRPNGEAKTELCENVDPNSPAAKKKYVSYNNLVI
Chain of Metabotropic glutamate receptor 1 (Homo sapiens) (Q13255 19-1194 limits assumed): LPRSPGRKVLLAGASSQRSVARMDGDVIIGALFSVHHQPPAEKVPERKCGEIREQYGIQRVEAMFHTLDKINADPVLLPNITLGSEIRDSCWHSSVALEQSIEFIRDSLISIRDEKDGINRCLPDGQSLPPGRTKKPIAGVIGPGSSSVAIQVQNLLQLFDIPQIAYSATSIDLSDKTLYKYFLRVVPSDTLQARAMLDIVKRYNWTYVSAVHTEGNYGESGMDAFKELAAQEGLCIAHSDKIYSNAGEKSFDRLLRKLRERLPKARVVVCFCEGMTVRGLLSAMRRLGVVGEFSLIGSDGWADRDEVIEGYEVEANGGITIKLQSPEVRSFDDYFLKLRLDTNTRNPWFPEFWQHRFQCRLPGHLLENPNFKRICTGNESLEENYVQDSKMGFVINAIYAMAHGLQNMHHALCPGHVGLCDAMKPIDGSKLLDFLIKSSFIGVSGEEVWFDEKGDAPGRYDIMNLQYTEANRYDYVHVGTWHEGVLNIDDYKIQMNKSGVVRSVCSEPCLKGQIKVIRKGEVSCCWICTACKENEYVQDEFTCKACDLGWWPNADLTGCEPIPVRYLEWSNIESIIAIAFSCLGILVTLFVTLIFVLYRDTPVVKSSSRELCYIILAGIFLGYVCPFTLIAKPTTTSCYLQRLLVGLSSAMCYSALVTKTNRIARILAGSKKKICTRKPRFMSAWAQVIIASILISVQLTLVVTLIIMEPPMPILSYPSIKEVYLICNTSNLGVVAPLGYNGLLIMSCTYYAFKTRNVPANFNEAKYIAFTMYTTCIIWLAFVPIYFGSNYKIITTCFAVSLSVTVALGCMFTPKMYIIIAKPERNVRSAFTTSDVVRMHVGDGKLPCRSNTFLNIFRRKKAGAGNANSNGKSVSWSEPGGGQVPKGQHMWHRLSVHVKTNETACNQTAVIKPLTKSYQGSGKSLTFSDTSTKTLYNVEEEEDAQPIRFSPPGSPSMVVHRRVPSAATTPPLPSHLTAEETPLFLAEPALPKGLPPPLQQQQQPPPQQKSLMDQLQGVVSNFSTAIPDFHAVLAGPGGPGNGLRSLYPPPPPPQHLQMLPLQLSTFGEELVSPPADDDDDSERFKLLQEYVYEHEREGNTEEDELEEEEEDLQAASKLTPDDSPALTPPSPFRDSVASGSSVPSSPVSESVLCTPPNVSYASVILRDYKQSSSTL
Chain of Metabotropic glutamate receptor 2 (Homo sapiens) (Q14416 19-872 limits assumed): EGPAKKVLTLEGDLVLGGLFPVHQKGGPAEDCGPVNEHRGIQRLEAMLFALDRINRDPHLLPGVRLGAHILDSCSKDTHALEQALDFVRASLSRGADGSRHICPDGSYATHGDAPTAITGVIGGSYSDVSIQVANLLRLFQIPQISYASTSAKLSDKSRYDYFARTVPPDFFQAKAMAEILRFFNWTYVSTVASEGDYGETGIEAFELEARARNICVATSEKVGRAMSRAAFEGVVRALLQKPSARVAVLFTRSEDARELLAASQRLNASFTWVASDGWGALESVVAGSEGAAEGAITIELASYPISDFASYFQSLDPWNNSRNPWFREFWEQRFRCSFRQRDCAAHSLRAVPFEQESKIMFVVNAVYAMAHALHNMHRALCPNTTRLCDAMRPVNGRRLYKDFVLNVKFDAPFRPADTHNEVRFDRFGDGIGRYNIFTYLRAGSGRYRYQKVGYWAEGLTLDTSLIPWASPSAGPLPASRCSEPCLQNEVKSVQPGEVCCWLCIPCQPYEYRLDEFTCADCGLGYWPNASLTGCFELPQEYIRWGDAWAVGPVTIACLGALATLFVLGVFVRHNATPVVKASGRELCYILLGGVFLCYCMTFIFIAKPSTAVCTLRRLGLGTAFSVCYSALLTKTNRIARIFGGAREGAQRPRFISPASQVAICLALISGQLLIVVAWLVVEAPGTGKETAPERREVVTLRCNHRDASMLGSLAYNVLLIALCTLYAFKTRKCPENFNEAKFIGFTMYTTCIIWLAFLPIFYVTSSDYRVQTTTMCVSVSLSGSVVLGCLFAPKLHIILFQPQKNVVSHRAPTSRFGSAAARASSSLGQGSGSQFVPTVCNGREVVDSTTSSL
Chain of Metabotropic glutamate receptor 6 (Homo sapiens) (O15303 whole entry): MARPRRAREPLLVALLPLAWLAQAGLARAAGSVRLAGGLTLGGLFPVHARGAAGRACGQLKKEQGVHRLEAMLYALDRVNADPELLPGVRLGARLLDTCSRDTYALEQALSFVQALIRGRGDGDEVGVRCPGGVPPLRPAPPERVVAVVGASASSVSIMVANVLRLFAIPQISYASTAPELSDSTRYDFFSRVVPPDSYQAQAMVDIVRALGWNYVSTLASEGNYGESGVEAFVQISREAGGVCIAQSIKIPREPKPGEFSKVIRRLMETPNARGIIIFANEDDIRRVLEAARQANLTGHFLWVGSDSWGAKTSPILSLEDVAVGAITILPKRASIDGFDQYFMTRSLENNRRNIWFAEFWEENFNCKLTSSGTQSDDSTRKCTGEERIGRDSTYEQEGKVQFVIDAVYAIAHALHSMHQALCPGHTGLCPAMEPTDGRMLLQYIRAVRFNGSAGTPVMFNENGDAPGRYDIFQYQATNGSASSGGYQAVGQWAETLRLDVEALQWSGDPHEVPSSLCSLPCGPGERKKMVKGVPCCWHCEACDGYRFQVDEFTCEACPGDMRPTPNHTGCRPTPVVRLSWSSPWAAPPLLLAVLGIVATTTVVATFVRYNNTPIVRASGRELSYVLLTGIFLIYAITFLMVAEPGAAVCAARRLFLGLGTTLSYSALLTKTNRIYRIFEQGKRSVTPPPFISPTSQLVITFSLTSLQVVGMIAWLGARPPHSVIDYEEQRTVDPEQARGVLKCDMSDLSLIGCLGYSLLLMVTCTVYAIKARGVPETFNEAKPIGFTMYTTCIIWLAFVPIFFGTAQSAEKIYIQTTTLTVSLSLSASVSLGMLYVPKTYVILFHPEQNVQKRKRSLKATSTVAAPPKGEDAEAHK
T3 sequence (P41594 whole entry): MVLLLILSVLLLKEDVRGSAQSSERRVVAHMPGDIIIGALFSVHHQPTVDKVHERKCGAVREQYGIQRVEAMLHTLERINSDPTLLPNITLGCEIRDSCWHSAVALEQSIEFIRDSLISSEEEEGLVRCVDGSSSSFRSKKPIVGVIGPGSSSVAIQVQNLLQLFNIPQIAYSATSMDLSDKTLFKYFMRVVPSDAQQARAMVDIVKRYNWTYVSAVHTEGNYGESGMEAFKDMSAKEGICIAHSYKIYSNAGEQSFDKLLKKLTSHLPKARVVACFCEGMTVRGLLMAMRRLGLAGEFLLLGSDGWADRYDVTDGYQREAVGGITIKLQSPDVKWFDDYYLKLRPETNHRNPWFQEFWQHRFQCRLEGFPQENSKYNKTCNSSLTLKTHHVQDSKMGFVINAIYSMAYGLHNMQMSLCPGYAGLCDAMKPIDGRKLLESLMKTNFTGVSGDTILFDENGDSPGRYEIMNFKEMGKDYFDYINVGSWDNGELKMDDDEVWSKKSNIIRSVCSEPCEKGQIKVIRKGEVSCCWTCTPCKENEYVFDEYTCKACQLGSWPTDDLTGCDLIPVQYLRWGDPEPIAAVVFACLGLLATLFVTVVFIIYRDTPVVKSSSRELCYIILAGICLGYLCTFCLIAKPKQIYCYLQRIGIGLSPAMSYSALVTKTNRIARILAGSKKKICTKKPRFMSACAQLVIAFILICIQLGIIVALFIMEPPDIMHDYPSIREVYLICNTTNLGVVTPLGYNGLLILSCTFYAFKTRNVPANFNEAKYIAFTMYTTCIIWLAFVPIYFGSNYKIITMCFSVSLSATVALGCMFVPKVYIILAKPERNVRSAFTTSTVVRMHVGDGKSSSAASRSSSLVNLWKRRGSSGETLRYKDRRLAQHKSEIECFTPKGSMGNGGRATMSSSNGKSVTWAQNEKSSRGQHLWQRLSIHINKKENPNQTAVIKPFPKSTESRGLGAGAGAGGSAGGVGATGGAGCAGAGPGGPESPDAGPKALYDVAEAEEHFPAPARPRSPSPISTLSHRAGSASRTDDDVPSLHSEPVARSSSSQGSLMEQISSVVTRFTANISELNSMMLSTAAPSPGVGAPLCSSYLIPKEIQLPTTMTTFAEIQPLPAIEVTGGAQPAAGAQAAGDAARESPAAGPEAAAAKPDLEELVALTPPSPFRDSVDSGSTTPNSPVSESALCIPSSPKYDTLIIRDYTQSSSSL

## O=C1N[C@H](c2cncc(C#Cc3ccccc3)c2)[C@@H](c2cc(F)ccc2F)O1
[1]
  Activity: > 10 µM
Canis familiaris
  Activity: Non-toxic
Brain [2]
  concentration: 178 nM
[3]
  Activity: > 10 µM
Plasma [4]
  concentration: 116 nM
[5]
  Activity: > 10 µM
Rattus norvegicus [6]
  Occ: 19%
[7]
  Activity: > 10 µM
[8]
  IC50: ≥ 1300 nM
[9]
  Vd: 1.8 L/kg
[10]
  Activity: > 10 µM
Mus musculus [11]
  minimal effective dose: 0.3 mg/kg
[12]
  Cmax: 41000 nM
[13]
  inhibition: inactive
[14]
  Activity: > 10 µM
Salmonella typhimurium [15]
  Activity: Non-toxic
Mus musculus [16]
  Occ: 94%
[17]
  bioavailability: 50%
[18]
  bioavailability: 68%
[19]
  Activity: > 10 µM
[20]
  Activity: > 10 µM
Mus musculus [21]
  Activity: Non-toxic
Rattus norvegicus [22]
  minimal effective dose: 0.1 mg/kg
[23]
  AUC(0-t) at 24 h: 751 µM·h
[24]
  Activity: > 10 µM
[25]
  Activity: > 10 µM
Rattus norvegicus [26]
  Activity: Non-toxic
Salmonella typhimurium [27]
  Activity: Non-toxic
[28]
  Activity: > 10 µM
Plasma [29]
  concentration: 34 nM
Mus musculus [30]
  Occ: 18%
Rattus norvegicus [31]
  Activity: Non-toxic
[32]
  Kp: 1
[33]
  Activity: > 10 µM
Rattus norvegicus [34]
  Activity: Non-toxic
[35]
  clearance: 11 mL/min/kg
Homo sapiens
  inhibition: 40%
[36]
  Activity: inactive
[37]
  IC50: 3600 nM
[38]
  Activity: > 10 µM
[39]
  Activity: > 10 µM
Brain [40]
  concentration: 34 nM
Progesterone receptor
  IC50: 2300 nM
[41]
  Activity: > 10 µM
[42]
  Activity: > 10 µM
[43]
  Activity: > 10 µM
[44]
  Activity: > 10 µM
[45]
  Activity: > 10 µM
[46]
  Activity: > 10 µM
[47]
  Activity: > 10 µM
[48]
  fraction unbound: 0.007
[49]
  bioavailability: 100%

## O=C1N[C@H](c2cncc(C#Cc3ccccc3)c2)[C@@H](c2cccc(F)c2)O1
Mus musculus [50]
  Activity: Toxic
Mus musculus [51]
  Activity: Toxic
[48]
  fraction unbound: 0.004

## O=C1N[C@H](c2cccc(C#Cc3ccccc3)c2)[C@@H](c2cccc(F)c2)O1
[52]
  EC50: 15 nM
[53]
  Ki: 6.5 nM
[54]
  EC50: > 30000 nM
